Experimental data reported in US20170274004A1, “TREATMENT OF CANCER USING TLR9 AGONIST WITH CHECKPOINT INHIBITORS” (IDERA PHARMACEUTICALS, INC., priority 2014, published 2017).

What was measured:
Type in all cases: in vivo, BALB/c mice
[1] = test system: B16 cells; test: Intratumoral TLR9 agonist in B16 melanoma model, treated and distant tumors (Example 5)
Experimental: […] mice (n=9) were implanted s.c with 1×10^6 B16 cells on the right and left flank. Treatment was initiated on day 7 with intratumoral injection in the left flank with of 2.5 mg/kg IMO-4. IMO-4 was given on days 7, 9, 11, 13 and 15. Samples from placebo (PBS) control and IMO-4 treated tumor-bearing mice were collected on day 22 after tumor implantation. […] Intratumoral IMO-4 also modulated tumor checkpoint expression thereby sensitizing the tumor microenvironment for combination with one or more checkpoint inhibitors (data not shown).

[2] = test system: murine colon carcinoma CT26 cells; test: TLR9 agonist and anti-PD-1 mAb combination, CT26 treated and distant tumors (Example 7); conditions: FIG. 11
Experimental: BALB/c mice (n=8 per group) were implanted s.c with 1×10^7 murine colon carcinoma CT26 cells in right flank (Tumor 1) and left flank (Tumor 2). Treatment was initiated on day 7 when tumor volume on reaches 200 to 300 mm^3. 2.5 mg/kg IMO-4 (50 μg in 100 μl PBS) was i.t injected at right tumor nodules and anti-PD-1 mAb (10 mg/kg, 200 μg/mouse) was administered by i.p injection either alone or co-administered on days 7, 8, 11 and 12 for total 4 times. Tumor nodules were collected at day 14.

[3] = test system: A20 cells; test: Intratumoral vs subcutaneous TLR9 agonist in A20 lymphoma model (Example 2)
Experimental: BALB/c mice (n=10) were implanted s.c with 3×10^6 A20 cells on the right flank. Treatment was initiated on day 8 with either intratumoral (i.t.) or subcutaneous (s.c.) injection of 2.5 mg/kg IMO-4. IMO-4 was given on days 8, 10, 12 and 14. Samples from placebo (PBS) control and IMO-4 treated tumor-bearing mice were collected on day 21 after tumor implantation. […] Intratumoral IMO-4 also modulated tumor checkpoint expression compared to subcutaneous administration thereby sensitizing the tumor microenvironment for combination with one or more checkpoint inhibitors (data not shown).

[4] = test system: A20 lymphoma; test: Intratumoral TLR9 agonist in A20 lymphoma model, treated and distant tumors (Example 3)
[5] = test system: CT26 cells; test: Intratumoral TLR9 agonist in CT26 colon carcinoma model, treated and distant tumors (Example 4)
Experimental: BALB/c mice (n=9) were implanted s.c with 2×10^6 CT26 cells on the right and left flank. Treatment was initiated on day 7 with intratumoral injection in the left flank with 2.5 mg/kg IMO-4. IMO-4 was given on days 7, 9, 11, 13 and 15. Samples from placebo (PBS) control and IMO-4 treated tumor-bearing mice were collected on day 27 after tumor implantation. […] Intratumoral IMO-4 also modulated tumor checkpoint expression thereby sensitizing the tumor microenvironment for combination with one or more checkpoint inhibitors (data not shown).

[6] = test system: CT26 cells; test: TLR9 agonist and anti-IDO1 inhibitor combination, CT26 treated tumors and systemic lung metastases (Example 9); conditions: compared with PBS group (nodules infiltrating most of the lung tissues); FIG. 16 legend
Experimental: BALB/c mice were implanted s.c with 1×10^7 CT26 cells on right flank. The mice were than i.v injected with 3×10^6 CT26 cells to establish lung metastases. Treatment was initiated on day 4. 2.5 mg/kg IMO-4 was administered intratumorally into solid tumors on the right flank and 75 mg/kg anti-IDO1 inhibitor was administered orally (p.o.). IMO-4 and anti-IDO1 inhibitor were given either alone or co-administered on days 4, 5, 7, and 8. Anti-IDO1 was administered twice. Samples from control, IMO-4, anti-IDO1 inhibitor or IMO-4 and anti-IDO1 inhibitor treated tumor-bearing mice were collected. FIGS. 14 through 17 show the effects of IMO-4 and anti-IDO1 inhibitor on directly treated tumors and systemic lung metastasis.

Substance: 5-TCGAACG1TTCG1-X-G1CTTG1CAAG1CT-5′ (chain 1 TCGAACGTTCG; chain 2 TCGAACGTTCG; two copies joined 3'-3' by glycerol linker; G1 modified; modified_base (3)..(3) 2′-deoxy-7-deazaguanosine; modified_base (7)..(7) 2′-deoxy-7-deazaguanosine; modified_base (11)..(11) 2′-deoxy-7-deazaguanosine) [IMO-4]
- antitumor activity, treated and distant tumor nodules ([1]; intratumoral in left flank, 2.5 mg/kg on days 7, 9, 11, 13, 15, FIG. 6): potent antitumor activity in both treated and distant tumor nodules
- tumor checkpoint expression ([1]; intratumoral, data not shown): modulated
- CD3+ cells in tumor tissue ([2]; compared with few CD3+ cells in PBS (vehicle) mice): a large number of CD+3 cells
- T lymphocyte infiltration into tumor tissues ([2]; tumor nodules collected day 14): increases
- antitumor activity ([3]; intratumoral 2.5 mg/kg on days 8, 10, 12, 14, FIG. 3): potent antitumor activity
- CD3+ TIL infiltration ([3]; intratumoral 2.5 mg/kg, samples day 21, FIG. 3): induced
- tumor checkpoint expression ([3]; intratumoral compared to subcutaneous administration, data not shown): modulated
- antitumor activity, treated and distant tumor nodules ([4]; intratumoral in left flank, 2.5 mg/kg on days 8, 10, 12, 14, FIG. 4): potent antitumor activity in both treated and distant tumor nodules
- tumor checkpoint expression ([4]; intratumoral, data not shown): modulated
- antitumor activity, treated and distant tumor nodules ([5]; intratumoral in left flank, 2.5 mg/kg on days 7, 9, 11, 13, 15, FIG. 5): potent antitumor activity in both treated and distant tumor nodules
- tumor checkpoint expression ([5]; intratumoral, data not shown): modulated
- tumor nodules in lung tissues [6]: tumor nodules are smaller than that of the PBS group
